Measurements taken from the Biogen ADME set (Fang et al. 2023).
≈ marks a conversion by molar mass, not a printed value.

Conditions: for aqueous solubility: pH 6.8

SMILES | MDR1-MDCK efflux ratio | intrinsic clearance, human liver microsomes [mL/min/kg] | intrinsic clearance, rat liver microsomes [mL/min/kg] | aqueous solubility [µg/mL] | fraction unbound, human plasma | fraction unbound, rat plasma
Cc1sc(NC(=O)CN2CCOC(C3CCCO3)C2)c(C)c1C (configuration not stated) | 1 | 12.8 | 185 | 60.9 (≈ 180 µM) |  | 
N#Cc1c(N)nc(SCC(N)=O)c(C#N)c1-c1ccc(OCC2CC2)cc1 | 42.5 |  |  | 0.52 (≈ 1.37 µM) |  | 
COc1c(C)cnc(Cn2cc(C#CCC(C)(C)O)c3c(Cl)nc(N)nc32)c1C |  | 58.2 | 145 |  |  | 
CN(CC1CCCC1)C(=O)Nc1ccccc1N1CCOC1=O | 5.03 | 44.9 | 541 | 50.6 (≈ 159 µM) |  | 
COc1ccc(OC)c(Cn2cnc3cn(C)nc3c2=O)c1 | 2.56 | ≤ 4.74 | 50.8 |  |  | 
Cn1cc(C(=O)O)c(-c2cccnc2)n1 |  |  |  | 40.8 (≈ 201 µM) |  | 
CCN1CCN(S(=O)(=O)Cc2ccc(Cl)c(Cl)c2)CC1 | 0.41 | 82.8 | 1440 | 25.7 (≈ 76.2 µM) | 0.177 | 0.118
Cc1ccc(NC(=O)OC(C)(C)C)c2c1N(C(=O)[C@H]1CCCO1)CCC2 | 2.91 | 33.6 | 377 | 32.2 (≈ 89.3 µM) |  | 
CSc1ccc(-c2ccc3n(c2=O)C[C@@H]2CNC[C@H]3C2)cc1 | 1.42 | 5.01 | 19.3 | 51.2 (≈ 164 µM) |  | 
O=C(CCc1ccc2c(c1)OCO2)Nc1nc2c(s1)CCC2 | 0.236 | 97.4 | 593 | 11.6 (≈ 36.5 µM) |  | 
COCC1CCN(c2noc(-c3cccs3)n2)CC1 | 0.541 | 39.6 | 325 | 12.9 (≈ 46.1 µM) |  | 
Cc1nc(C(=O)NC2CC2)ccc1C#N |  |  |  | 36.2 (≈ 180 µM) |  | 
Cc1nccc(C2CCN(Cc3ncc[nH]3)CC2)n1 | 25.7 | ≤ 4.74 | 28.9 | 80.4 (≈ 313 µM) |  | 
CC(C)N1CCN(CCCSc2ncc[nH]2)CC1 |  | ≤ 4.74 | 87.1 |  |  | 
Cc1cccn(Cc2cccc(C#N)c2)c1=O | 0.69 | ≤ 4.74 | 28.8 | 30.9 (≈ 138 µM) |  | 
CSc1ccccc1S(=O)(=O)NC1CCC(CN(C)C)CC1 (configuration not stated) | 8.91 | ≤ 4.74 | 440 |  |  | 
O=c1[nH]c2ccccc2n1C1CCN(Cc2coc(-c3cccs3)n2)CC1 |  | 29.4 | 475 |  |  | 
O=C(NCC(F)(F)F)c1ccncc1 |  |  |  | 30.7 (≈ 150 µM) |  | 
Cc1nc(COc2ccc(F)cc2)sc1C(=O)N1CCC(C)CC1 | 0.543 | 90.2 | 2510 | 47.4 (≈ 136 µM) |  | 
CCOC(=O)N1CCN(C(=O)c2ccc3c(c2)OCO3)CC1 | 0.82 | ≤ 4.74 | 112 | 53 (≈ 173 µM) |  | 
COc1ccc(NC(=O)c2snnc2C)c(OC)c1 | 0.521 | 34.2 | 182 | 3.67 (≈ 13.1 µM) |  | 

More lines, now with the values ahead:

MDR1-MDCK efflux ratio | intrinsic clearance, human liver microsomes [mL/min/kg] | intrinsic clearance, rat liver microsomes [mL/min/kg] | aqueous solubility [µg/mL] | fraction unbound, human plasma | fraction unbound, rat plasma | SMILES
6.88 | 28.6 | 517 | 34.3 (≈ 96.9 µM) |  |  | O=C(NCc1nnc2n1-c1ccccc1CC2)c1ccc2ccccc2c1
0.57 | 18.9 | 170 |  |  |  | OC1(c2cccnc2F)CCN(Cc2ccc(-c3ccc(F)cc3)o2)CC1
0.571 | 5.8 | 65.2 | 23.1 (≈ 86.3 µM) |  |  | O=c1n(CCc2ccncc2)nnn1-c1ccccc1
0.961 | 446 | 559 |  | 0.0244 | 0.0188 | CNC(=O)C1(Cc2ccc(-c3cccnc3)cc2)CCN(Cc2ccccc2Cl)C1 (configuration not stated)
0.707 | 102 | 936 | 77.6 (≈ 195 µM) |  |  | CN(C)C(=O)COC(=O)Cc1ccc(OC(=O)c2ccc(NC(=N)N)cc2)cc1
 | 97.6 | 246 |  |  |  | O=C(NCc1cccc(O)c1)Nc1nc(-c2ccncc2)cs1
0.516 | 21.8 | 145 |  |  |  | Cc1noc(C)c1-c1cc(-c2ccccc2Cl)nc(C2CC2)n1
0.793 | 11.6 | 449 | 50 (≈ 159 µM) |  |  | O=C(NCC1(c2ccc(F)cc2)CCOCC1)c1ccccn1
134 | ≤ 4.74 | 25.3 | 33 (≈ 106 µM) |  |  | Cn1cnnc1CCn1ccnc1-c1cc2ccccc2s1
 |  |  | 5.91 (≈ 25.8 µM) |  |  | N#Cc1ccsc1NC(=O)c1ccccn1
 | 206 | 240 | 5.7 (≈ 21.7 µM) |  |  | Cc1ccc(NC(=O)c2cccc3cccnc23)cc1
 | 36.2 | 525 | 28.9 (≈ 72.4 µM) |  |  | CC(Oc1ccc(Cl)cc1)C(=O)N1CCC(n2c(=O)[nH]c3ccccc32)CC1 (configuration not stated)
 |  |  |  | 0.105 | 0.0162 | Cc1cccc(-c2nc(C34CCC(C(N)=O)(CC3)CC4)[nH]c2-c2ccc3c(c2)OCO3)n1
3.4 | 11.4 | 43.4 | 2.4 (≈ 4.19 µM) | 0.0273 | 0.0212 | Cc1c(-c2c(F)cc(C(N)=O)c3[nH]c4c(c23)CC[C@H](C(C)(C)O)C4)cccc1-n1c(=O)c2cccc(F)c2n(C)c1=O
 | ≤ 4.74 | ≤ 10.7 | 79.1 (≈ 343 µM) |  |  | NCCn1cc(NC(=O)c2ccccc2)cn1
 | 11.1 | 240 |  |  |  | Cc1ccc(C#N)c(NC(=O)CCc2ccccc2)n1
1.22 | 975 | 3430 |  |  |  | Cc1cc(C#N)cc(N2CCc3c(ncn3CCc3ccccc3)C2)n1
0.76 | 123 | 1780 |  |  |  | COC1(c2nc(Cc3ccccc3)no2)CCN(Cc2ncccc2Cl)CC1
12.8 |  |  | 0.19 (≈ 0.436 µM) |  |  | Cc1cn2c3c(=O)n(Cc4ccccc4Cl)c(=O)n(C)c3nc2n1-c1ccccc1O
0.446 | 107 | 1320 | 48 (≈ 180 µM) |  |  | Cc1oc(C)c(C(=O)NCC#Cc2ccccc2)c1C
